Assay results from patent publication US20240025903A1, “Bicyclic Compounds and Uses Thereof for the Treatment of Diseases” (Athira Pharma, Inc., priority 2020, published 2024).

Tests used:
[1] = Turbidimetric solubility assay; type: physicochemical; details: aqueous buffer, kinetic from dmso stock, PBS, 37° C., absorbance 620 nm
Method: Aqueous solubility is a critical drug property that helps to predict bioavailability. Generally, compounds with aqueous solubility <100 μg/ml are poor drugs.
To assess a compound's solubility by turbidity, test compounds were first dissolved in organic solvent (DMSO) at a concentration of 10 mM. This compound solution was then diluted in aqueous solvent (PBS) in a dilution series from […] in a 96-well assay plate. Solutions were incubated at 37° C. for 2 hours.
In wells with test compounds over their solubility limit, the compound will precipitate, effectively blocking the passage of light and thus increasing the absorbance signal of UV light at a wavelength of 620 nm. Compounds were considered insoluble at a tested concentration if turbidity raises the absorbance more than 10% above control reads.

MDCK cells = experiment: Cell scattering behavior assay; type: cell-based; parameters: key: − indicates that the compound failed to significantly promote cell scattering behavior; + indicates maximum potency at or above 100 nM; ++ indicates maximum potency at or above 10 nM; +++ indicates maximum potency at or above 1 nM; ++++ indicates maximum potency at or above 0.1 nM; details: 5 ng/mL HGF, 24 hours, normalized particle count vs HGF alone
Method: MDCK cells were grown under normal conditions and observed to spontaneously form tight colonies as they proliferate. MDCK cells respond to HGF treatment by moving away from each other (scattering), which is quantified to assess the amount of HGF/MET activation in the cell population. In this experiment, MDCK cells were plated in a 96-well format, treated with HGF and exemplary compounds, fluorescently stained, imaged in large fields, and scattering behavior was quantified. Quantification was determined by analyzing the number of continuous groups of cells compared to the total stained area imaged (normalized particle counts).
MDCK cells were plated at low density in black-walled imaging plates and allowed to attach overnight at 37° C. and 5% CO2 in DMEM+10% FBS. Cells were then starved to 2 hours in DMEM without FBS (“starve media”). Samples containing exemplary compounds were prepared in DMEM without FBS and included 5 ng/mL HGF protein (“treatment media”). A control curve was also prepared for each plate using HGF concentrations of 0, 5, 10, and 20 ng/mL. Starve media was replaced with treatment media and cells were incubated for 24 hours at 37° C. and 5% CO2.
After incubation, cells were fixed by replacing treatment media with cold ethanol and incubating for 20 minutes at 4° C. Cells were then rehydrated by washing with PBS and then with stain solution (fluorescent wheat germ agglutinin; WGA488 at 20 μg/mL in PBS). Cells were incubated with stain solution 30 minutes at room temperature after which stain solution was replaced with fresh PBS.
Fields of cells were imaged using an iCyte high content imager in the green wavelength. Images were converted to binary and analyzed for particle size and particle count. For the purpose of analysis, an individual cell touching no other cells or separated colonies of cells were identified as particles, and particle counts were normalized by the total signal area to account for differences in cell number. […] Compound potency was assessed by statistical increase in normalized particle count compared to HGF treatment alone.

HGF/MET system = molecular target: T1, HGF/MET system (Homo sapiens, UniProt P08581+P14210); experiment: Phospho-MET ELISA; type: cell-based; parameters: key: − indicates that the compound failed to significantly augment MET phosphorylation; + indicates maximum potency at or above 100 nM; ++ indicates maximum potency at or above 10 nM; +++ indicates maximum potency at or above 1 nM; ++++ indicates maximum potency at or above 0.1 nM; details: HEK293 cells, 1 ng/mL recombinant HGF, 15 minutes, pMET ELISA
T1 construct: HEK293 cells were prepared by passage into 6-well multi-plates; endogenous in cells; host or cells: HEK293
T1 sequence (P08581 308-1390 limits assumed): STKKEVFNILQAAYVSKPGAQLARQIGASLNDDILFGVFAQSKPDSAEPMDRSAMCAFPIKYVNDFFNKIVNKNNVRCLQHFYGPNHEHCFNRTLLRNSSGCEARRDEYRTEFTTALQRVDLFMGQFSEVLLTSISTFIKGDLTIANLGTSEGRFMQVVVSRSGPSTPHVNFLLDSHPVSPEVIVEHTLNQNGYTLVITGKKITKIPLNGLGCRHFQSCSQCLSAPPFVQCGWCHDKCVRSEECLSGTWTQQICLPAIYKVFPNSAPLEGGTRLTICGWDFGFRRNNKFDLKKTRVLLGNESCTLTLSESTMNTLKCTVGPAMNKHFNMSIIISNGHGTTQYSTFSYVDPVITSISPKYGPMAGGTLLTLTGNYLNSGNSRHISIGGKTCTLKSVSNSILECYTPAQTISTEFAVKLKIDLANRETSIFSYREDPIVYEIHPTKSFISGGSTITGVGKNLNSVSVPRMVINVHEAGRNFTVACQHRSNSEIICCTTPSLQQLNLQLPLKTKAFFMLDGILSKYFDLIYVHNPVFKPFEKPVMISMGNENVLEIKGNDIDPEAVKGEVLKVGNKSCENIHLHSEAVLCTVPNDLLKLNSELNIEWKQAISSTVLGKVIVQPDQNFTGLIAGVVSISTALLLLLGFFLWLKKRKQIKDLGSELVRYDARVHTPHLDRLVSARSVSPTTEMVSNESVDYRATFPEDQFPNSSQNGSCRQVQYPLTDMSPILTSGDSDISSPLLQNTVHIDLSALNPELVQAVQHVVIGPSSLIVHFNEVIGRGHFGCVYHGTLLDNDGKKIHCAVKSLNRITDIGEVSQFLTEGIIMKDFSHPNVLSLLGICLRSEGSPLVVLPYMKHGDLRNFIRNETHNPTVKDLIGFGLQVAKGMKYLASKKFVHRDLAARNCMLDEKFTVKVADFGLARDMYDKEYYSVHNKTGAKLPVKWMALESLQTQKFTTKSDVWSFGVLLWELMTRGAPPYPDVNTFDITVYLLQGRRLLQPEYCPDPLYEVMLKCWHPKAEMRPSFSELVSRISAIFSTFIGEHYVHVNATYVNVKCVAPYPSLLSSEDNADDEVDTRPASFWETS
T1 sequence (P14210 32-494 limits assumed): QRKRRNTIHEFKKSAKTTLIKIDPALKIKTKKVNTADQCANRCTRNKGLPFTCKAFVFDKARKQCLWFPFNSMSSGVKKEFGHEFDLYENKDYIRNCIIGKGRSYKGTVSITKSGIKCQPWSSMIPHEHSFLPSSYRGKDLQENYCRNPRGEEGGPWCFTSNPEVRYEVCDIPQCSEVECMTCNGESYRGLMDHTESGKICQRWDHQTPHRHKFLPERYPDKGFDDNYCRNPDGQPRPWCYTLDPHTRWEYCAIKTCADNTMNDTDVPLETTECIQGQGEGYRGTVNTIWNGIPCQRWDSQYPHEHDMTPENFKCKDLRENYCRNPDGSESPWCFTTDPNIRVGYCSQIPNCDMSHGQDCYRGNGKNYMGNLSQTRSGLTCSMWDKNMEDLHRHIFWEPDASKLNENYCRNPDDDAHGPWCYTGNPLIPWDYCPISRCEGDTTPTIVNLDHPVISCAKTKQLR
Method: Compounds were screened for potency towards the HGF/MET system using phospho-MET (pMET) ELISA kits (Cell Signaling). pMET levels were detected in samples having low (1 ng/mL) and high (10 ng/mL) concentrations of HGF.
HEK293 cells were prepared by passage into 6-well multi-plates and grown at 37° C. at 5% CO2 in DMEM+10% FBS until approximately 90% confluent. Cells were then starved for at least 8 hours in serum-free growth media.
Exemplary compounds were prepared in DMEM+0.1% FBS, diluted and added to treatment media with 1 ng/mL recombinant HGF protein (R&D Systems). Cells were incubated in triplicate at 37° C. and 5% CO2 for 15 minutes. Samples were then treated with 180 μL ice-cold RIPA (radioimmunoprecipitation assay) buffer and cells were lysed on ice for 15 minutes. Lysates were cleared by centrifugation at 16,000-g for 15 minutes and the supernatant was retained. Samples were normalized using a BCA assay of lysates to determine protein concentrations across the samples.
Between 50 and 100 μg total protein lysate was loaded into ELISA wells in pMET Sandwich ELISA kit (Cell Signaling Catalog #7227C), ensuring equal protein load in each well. The ELISA was processed according to manufacturer's instructions. After color developed, absorbance was read on an optical plate reader at 450 nm.
Potency measurements were determined using peak efficacy by scaling test compound dose treatments along a scale of 1-10 between 1 ng/mL and 10 ng/mL HGF doses according to the following formula: […]
where y is the normalized data-point, x is the raw data point, A is the mean HGF at 1 ng/mL, and B is the mean HGF at 10 ng/mL.

Row | Structure (SMILES) | solubility at 2 h [1] [µM] | Potency (cell scattering) (MDCK cells) | Potency (augmentation of MET phosphorylation) (HGF/MET system)
1 | CCC(C)CN1CC2N(C(=O)c3ccc(Cl)cc3)CCC(=O)N2C(C)C1=O (centres unmarked) [Compound 10, 1-(4-chlorobenzoyl)-6-methyl-8-(2-methylbutyl)hexahydro-4H-pyrazino[1,2-a]pyrimidine-4,7(6H)-dione] | > 300 | − | −
2 | CC1C(=O)N(CC2CCCC2)CC2N(C(=O)c3ccc(OC(F)F)cc3)CCC(=O)N12 (centres unmarked) [Compound 13] | > 300 | − | −
3 | CC1C(=O)N(CC2CCCC2)CC2N(C(=O)c3ccc(C(F)(F)F)cc3)CCC(=O)N12 (centres unmarked) [Compound 15] | > 300 | − | −
4 | CC1C(=O)N(CC2CCC2)CC2N(C(=O)c3ccc(C(F)(F)F)cc3)CCC(=O)N12 (centres unmarked) [Compound 16] | > 300 | − | −
5 | C=CCCN1CC2N(C(=O)c3ccc(OC(F)F)cc3)CCC(=O)N2C(C)C1=O (centres unmarked) [Compound 18] | > 300 | − | −
6 | CCCCN1CC2N(C(=O)c3ccc(C(F)(F)F)cc3)CCC(=O)N2C(C)C1=O (centres unmarked) [Compound 21] | > 300 | − | −
7 | CC(C)CN1CC2N(C(=O)c3ccc(C(F)(F)F)cc3)CCC(=O)N2C(C)C1=O (centres unmarked) [Compound 23] | > 300 | − | −
8 | CC(C)N1CC2N(C(=O)c3ccc(C(F)(F)F)cc3)CCC(=O)N2C(C)C1=O (centres unmarked) [Compound 24] | > 300 | − | −
9 | CC1C(=O)N(CCc2ccco2)CC2N(C(=O)c3ccc(OC(F)F)cc3)CCC(=O)N12 (centres unmarked) [Compound 25] | > 300 | − | −
10 | CC1C(=O)N(CCc2cccs2)CC2N(C(=O)c3ccc(OC(F)F)cc3)CCC(=O)N12 (centres unmarked) [Compound 26] | > 300 | − | −
11 | CC1C(=O)N(CC2CCCO2)CC2N(C(=O)c3ccc(OC(F)F)cc3)CCC(=O)N12 (centres unmarked) [Compound 27] | > 100 |  | −
12 | CC1C(=O)N(CCc2ccccc2)CC2N(C(=O)c3ccc(OC(F)F)cc3)CCC(=O)N12 (centres unmarked) [Compound 28] | > 100 | − | −
13 | CC1C(=O)N(CCc2ccncc2)CC2N(C(=O)c3ccc(OC(F)F)cc3)CCC(=O)N12 (centres unmarked) [Compound 29] | > 300 |  | −
14 | CC1C(=O)N(CCC2CC2)CC2N(C(=O)c3ccc(OC(F)F)cc3)CCC(=O)N12 (centres unmarked) [Compound 31] | > 300 | − | −
15 | COCCN1CC2N(C(=O)c3ccc(OC(F)F)cc3)CCC(=O)N2C(C)C1=O (centres unmarked) [Compound 32] | > 300 | − | −
16 | COCCCN1CC2N(C(=O)c3ccc(OC(F)F)cc3)CCC(=O)N2C(C)C1=O (centres unmarked) [Compound 33] | > 300 | − | −
17 | CC1C(=O)N(CCO)CC2N(C(=O)c3ccc(OC(F)F)cc3)CCC(=O)N12 (centres unmarked) [Compound 34, 1-(4-(difluoromethoxy)benzoyl)-8-(2-hydroxyethyl)-6-methylhexahydro-4H-pyrazino[1,2-a]pyrimidine-4,7(6H)-dione] | > 300 | − | −
18 | CC1C(=O)N(CCN)CC2N(C(=O)c3ccc(OC(F)F)cc3)CCC(=O)N12 (centres unmarked) [Compound 35, 8-(2-aminoethyl)-1-(4-(difluoromethoxy)benzoyl)-6-methylhexahydro-4H-pyrazino[1,2-a]pyrimidine-4,7(6H)-dione] | > 300 | − | −
19 | CC1C(=O)N(CCS(C)(=O)=O)CC2N(C(=O)c3ccc(OC(F)F)cc3)CCC(=O)N12 (centres unmarked) [Compound 36] | > 300 | − | −
20 | CC1C(=O)N(CCC2CCCC2)CC2N(Cc3ccc(OC(F)F)cc3)CCC(=O)N12 (centres unmarked) [Compound 38] | > 100 |  | −
21 | C=CCCN1CC2N(Cc3ccc(OC(F)F)cc3)CCC(=O)N2C(C)C1=O (centres unmarked) [Compound 39] | > 300 | − | −
22 | CC1C(=O)N(CCC2CCC2)CC2N(Cc3ccc(OC(F)F)cc3)CCC(=O)N12 (centres unmarked) [Compound 40] | > 300 |  | −
23 | CCCCN1CC2N(Cc3ccc(OC(F)F)cc3)CCC(=O)N2C(C)C1=O (centres unmarked) [Compound 41] | > 300 | − | −
24 | CCC(C)CN1CC2N(Cc3ccc(C(F)(F)F)c(Cl)c3)CCC(=O)N2C(C)C1=O (centres unmarked) [Compound 43] | > 100 | − | −
25 | CCC(C)CN1CC2N(Cc3c[nH]c4ccccc34)CCC(=O)N2C(C)C1=O (centres unmarked) [Compound 44] | > 100 | − | −
26 | CC1C(=O)N(CCC2CCC2)CC2N(Cc3ccc(F)cc3)CCC(=O)N12 (centres unmarked) [Compound 45, 8-(2-cyclobutylethyl)-1-(4-fluorobenzyl)-6-methylhexahydro-4H-pyrazino[1,2-a]pyrimidine-4,7(6H)-dione] | > 300 |  | −
27 | CCC(C)CN1CC2N(Cc3ccc(OC(F)F)cc3)CCC(=O)N2C(CF)C1=O (centres unmarked) [Compound 47, 1-(4-(difluoromethoxy)benzyl)-6-(fluoromethyl)-8-(2-methylbutyl)hexahydro-4H-pyrazino[1,2-a]pyrimidine-4,7(6H)-dione] | > 300 |  | −
28 | CCC(C)CN1CC2N(Cc3ccc(C(F)(F)F)cc3)CCC(=O)N2C(CF)C1=O (centres unmarked) [Compound 48, 6-(fluoromethyl)-8-(2-methylbutyl)-1-(4-(trifluoromethyl)benzyl)hexahydro-4H-pyrazino[1,2-a]pyrimidine-4,7(6H)-dione] | > 100 |  | −
